Experimental data from US4371673A, “Water soluble forms of retinoids” (The United States of America as represented by the …, priority 1980, dated 1983).
Values after ≈ are worked out from the molar mass of the structure shown. Values joined by “and” are separate entries in the source; they are usually repeats but may differ in a detail not shown here. Equal values may be shown once. Read-outs that look alike come from different tables or passages of the source. Blank lines part the entries; values can stand above or below the compound they belong to.

Assays:
vitamin A-deficient rats [1] = experiment: Vitamin A-like activity measured by survival of rats fed vitamin A-deficient diet; format: in vivo, rat (male weanling albino, Holtzman); conditions: for No. of surviving animals/total: 100 μg retinal equivalent for complex
Method: Studies were undertaken to determine whether the chemical modification of retinoids to polymer-linked water soluble forms alter its biological activities. Specifically, the vitamin A-like activity of the mixed α-, β-dextrin complex of retinal-carboxymethyldextran hydrazone was tested on rats made vitamin A-deficient. The "animals" referred to herein should be construed as meaning rats.
To prepare the rats for dietary studies, male weanling albino rats of the Holtzman string were fed a vitamin A-deficient diet until a weight plateau was reached. A cyclic program was then begun in which the rats which were provided with the deficient diet were supplemented with retinoic acid at a rate of 2 μg per g. This was continued for 18 days followed by 10 days of the original deficient diet. At the termination of the fourth 18-day period in which the rats were fed the retinoic acid supplemented diet, the rats were fed for 7 days with the deficient diet and then used in two types of experiments: (a) Studies of the resorption of retinal-carboxymethyldextran hydrazone from the gastrointestinal tract and (b) studies of growth support for avitamineosis. The results of the resorption studies (a) were determined by spectrophotometrically analyzing for retinol in the serum or liver. The vitamin A-like activity of the complexes of the present invention (b) was evaluated by comparison of survival rates of a control group, those fed a cyclodextrin complex of a retinoid-polymer and those fed a free retinoid derivative.
^a The control rats received 0.2 mL of cottonseed oil
intraperitoneally while the treated animals received […] of retinyl
acetate or retinoic acid in 0.2 mL cottonseed oil or retinaldextran
complex (100 μg of retinal equivalent) in 0.2 mL water. Subsequently,
the rats received a vitamin Adeficient diet for periods indicated in the
Table and their survival was followed.
In the second series of experiments, compared in Table 2, the retinal-carboxymethyldextran complex was administered intraperitoneally and the survival of the vitamin A-deficient rats was followed during the 28 to 35 days of a vitamin A-deficient diet. […] In contrast, the control rats as well as those rats which received retinoic acid (Experiment 3) died.

[2] = Direct solubilization of retinoids by cyclodextrins and their derivatives; format: physicochemical; conditions: read-out: Solubility of retinoid in physiological buffered saline
Excerpt: It has been discovered that by appropriately selecting a derivatized cyclodextrin, it is unnecessary to prepare a retinoid-polymer compound preliminary to, or concurrent with, the preparation of the complex. This greatly simplifies the process of dissolving a retinoid. Thus, to prepare a solution of the cyclodextrin retinoid complex, it is merely necessary to add the components, retinoid and cyclodextrin, with stirring to an aqueous medium, such as a saline or isotonic solution, at room temperature. If one has a suitable cyclodextrin available, it is unnecessary to synthesize the cyclodextrin retinoid-polymer.
Some examples of the solubility obtained for retinoid-dextrin complexes of the present invention in physiologically acceptable solutions are presented in Table 1. It may be noted that while the solubility of a complex of one retinoid with a particular cyclodextrin may not be great, the solubility of a complex of another retinoid, using the same cyclodextrin, may be increased several orders of magnitude.
Solubility of retinoid (μg/ml)
in physiological buffered saline
(NaCl, 8 g/L; Na2 HPO4.7H2 O,
2.2g/L; KCl, 0.2 g/L and […]

in vitro = conditions: mouse, s9
Excerpt: Decreased plating efficiency and cell lysis are considered indications of cytotoxic effects.

S91 melanoma cells = experiment: S91 melanoma cell proliferation (growth inhibition); format: cell-based; conditions: for inhibition at 0.2 µM: Mus musculus, S91, 144 h, read-out: Percentage of growth inhibition
Method: Medium was chaged on Day 3. The cells were treated for 6 days

physchem = conditions: isotonic buffered saline
Excerpt: The concentration of retinal in the complex was estimated by comparison of the absorbance at the peak of the absorbance spectrum with the absorbance of free retinal in ethanol at 380 nm.

vitamin A-deficient rats [3] = experiment: Retinol in serum and liver of treated vitamin A-deficient rats (spectrophotometric), resorption studies; parameters: species or system rat (male weanling albino, Holtzman); conditions: rat, in vivo, ip
[4] = buffered saline with α-cyclodextrin, α-cyclodextrin, 50 mg/ml
[5] = buffered saline with β-cyclodextrin, β-cyclodextrin, 17 mg/ml
[6] = physiological buffered saline, dodecakis-2,6-O-methyl-α-cyclodextrin, 25 mg/ml
[7] = physiological buffered saline, hexadecakis-2,6-O-methyl-γ-cyclodextrin, 25 mg/ml
[8] = physiological buffered saline, solubilization agent: none
[9] = physiological buffered saline, tetradecakis-2,6-O-methyl-β-cyclodextrin, 50 mg/ml
[10] = physiological buffered saline, γ-cyclodextrin, 50 mg/ml

SMILES: CC(=O)OC/C=C(C)/C=C/C=C(C)/C=C/C1=C(C)CCCC1(C)C [Retinyl acetate]
No. of surviving animals/total (vitamin A-deficient rats [1]; Experiment 1, 35 days on vitamin A-deficient diet, intraperitoneal): 3/3
No. of surviving animals/total (vitamin A-deficient rats [1]; Experiment 2, 28 days on vitamin A-deficient diet, intraperitoneal): 4/4

solubility [2, 4]: 4 µg/mL (≈ 14.1 µM)
solubility [2, 5]: 2 µg/mL (≈ 7.03 µM)
solubility [2, 6]: 7 µg/mL (≈ 24.6 µM)
solubility [2, 7]: 4 µg/mL (≈ 14.1 µM)
solubility [2, 8]: < 1 µg/mL
solubility [2, 9]: 570 µg/mL (≈ 2000 µM)
solubility [2, 10]: 1 µg/mL (≈ 3.52 µM)
MCC (in vitro): ≥ 10 µM
MNTC (in vitro): 2000 nM
solubility (physchem): < 0.01 µg/mL
SMILES: CC1=C(/C=C/C(C)=C/C=C/C(C)=C/C=O)C(C)(C)CCC1 [retinal]
CC50 (in vitro): 4 µM
growth rate of cells after 48 hours (in words) (S91 melanoma cells; 48 hours, retinal 1 μM, complex 10 μM retinal moiety, FIG. 3, vs untreated controls): reduced in comparison to the untreated controls
growth inhibition, dose dependence (in words) (S91 melanoma cells; 6 days, below 2 μM (retinal) and 40 μM (complex), FIG. 2): dose-dependent inhibition
inhibition at 0.2 µM (S91 melanoma cells; 0.2 μM, 6 days): 28%
inhibition at 0.2 µM (S91 melanoma cells; second retinal line, printed 0.2 μM, 6 days): 52%
relative potency as growth inhibitor (in words) (S91 melanoma cells; all concentrations where retinal is not toxic): more potent inhibitor than the corresponding complex
inhibition of cell proliferation, first 24 hours (in words) (S91 melanoma cells; first 24 hours, retinal 1 μM, complex 10 μM retinal moiety, FIG. 3): no apparent inhibition of cell proliferation

SMILES: CC1=C(/C=C/C(C)=C/C=C/C(C)=C/C(=O)O)C(C)(C)CCC1 [retinoic acid]
solubility [2, 4]: 140 µg/mL (≈ 466 µM)
solubility [2, 5]: 2000 µg/mL (≈ 6660 µM)
solubility [2, 6]: 460 µg/mL (≈ 1530 µM)
solubility [2, 7]: 140 µg/mL (≈ 466 µM)
solubility [2, 8]: 20 µg/mL (≈ 66.6 µM)
solubility [2, 9]: 460 µg/mL (≈ 1530 µM)
solubility [2, 10]: 130 µg/mL (≈ 433 µM)
day of death of animals (vitamin A-deficient rats [1]; Experiment 3, individual animals): 14 days and 28 days and 30 days
No. of surviving animals/total (vitamin A-deficient rats [1]; Experiment 3, 31 days on vitamin A-deficient diet, intraperitoneal): 0/3
survival / vitamin A-like activity (in words) (vitamin A-deficient rats [1]; intraperitoneal, 28 to 35 days of vitamin A-deficient diet): died
Serum retinol (in words) (vitamin A-deficient rats [3]): not detectable
